In PubChem BioAssay (NCI) one finds TGI data, which are given here for 14 compounds.

The structures appear in SMILES notation.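 48-hour exposure; five concentrations; linearly interpolated endpoints. TGI marks complete inhibition of growth.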 Where only a bound is given, the exact number is not on record here.

What all share (assay): DTP human tumour cell line panel, 48 h
Experiment [1] concerns BT-549 breast.
Experiment [2] deals with CAKI-1 renal.
In experiment [3] the test system is COLO 205 colon.
The test system of experiment [4] is DU-145 prostate.
The test system of experiment [5] is HCT-15 colon.
In experiment [6] the test system is MCF7 breast.
The test system of experiment [7] is OVCAR-4 ovarian.
The subject of experiment [8] is PC-3 prostate.
Experiment [9] concerns SF-295 CNS.
Experiment [10] concerns HCC-2998 colon.

As to `Cc1cc(C)c2c(n1)S(=O)(=O)N(CCCN1CCN(c3cccc(Cl)c3)CC1)/C(=C(\O)c1ccc(Br)cc1)C2=O`, the TGI – broadly, the concentration giving total growth inhibition – was above 100 µM in experiment [1]; 49.4 µM in experiment [2]; 29.8 µM in [3]; above 100 µM in experiment [4]; above 100 µM in [5]; above 100 µM in experiment [6]. Besides, the results for the TGI in experiment [7], in experiment [8] and in experiment [9] were 55.8 µM, above 100 µM and 86 µM, respectively.

Regarding `CC[C@]12C=CCN3CC[C@@]4(c5cc(Br)c(OC)cc5N(C)[C@H]4[C@@](O)(C(=O)NC(Cc4c[nH]c5ccccc45)C(=O)OC)[C@@H]1O)[C@@H]32` (some centres not stated), the TGI in experiment [1] is above 100 µM; in experiment [2], above 100 µM; in experiment [3], 21 µM; in [4], above 100 µM; in [5], above 100 µM; in [6], above 100 µM. For the same compound, the TGI in experiment [7], in experiment [8] and in [9] was above 100 µM each time.

On to `COc1ccc(N2C(=O)/C(=C/c3ccc(N(CCC#N)CCC#N)cc3)N=C2c2ccccc2)cc1`, for which the TGI in experiment [1], in experiment [2], in [3], in experiment [4], in [5] and in experiment [6] was above 100 µM in each case. Moreover, the TGI in experiment [7], in [8] and in experiment [9] was above 100 µM in each case.

`COC(=O)C12Oc3ccc(-c4ccc5c(c4O)C(O)=C4C(=O)CC(C)C(O)C4(C(=O)OC)O5)c(O)c3C(O)=C1C(=O)CC(C)C2O` (configuration not stated): the TGI in experiment [1] was 8.77 µM; in experiment [2] it was 4.54 µM; in experiment [3], 0.195 µM; in [4] it was above 66 µM; in experiment [5], above 100 µM; in experiment [6], above 100 µM. Moreover, the TGI in experiment [7] was above 100 µM; in [8], 1.43 µM; in [9], 1.84 µM.

In the case of `COC(=O)C(=O)C(C(=O)OC)C(=O)C(=O)Nc1c(Cl)cc([N+](=O)[O-])cc1Cl` (configuration not stated), the TGI in [1], in experiment [2], in experiment [10], in experiment [5], in [6] and in [7] was above 100 µM each time. In addition, the TGI in experiment [8] and in experiment [9] was above 100 µM in each case.

Take `NC(=S)N1N=C2c3ccccc3CCC[C@H]2[C@@H]1c1ccccc1`: the TGI in [1] stood at 19.7 µM; in experiment [3], 6.32 µM; in experiment [4], 9.27 µM; in experiment [10], 14 µM; in [5], 26.2 µM; in experiment [6], 25.3 µM. For the same compound, the TGI was 23.2 µM in experiment [7], 18.3 µM in [8] and 10.6 µM in experiment [9].

Regarding `CCNC(=S)NNC(=O)c1ccccc1Nc1ccccc1C(=O)NNC(=S)NCC`, the TGI in experiment [1], in experiment [3], in experiment [4], in [10], in experiment [5] and in experiment [6] was above 100 µM each time. Further, the TGI in experiment [7], in experiment [8] and in experiment [9] was above 100 µM throughout.

Regarding `COc1cccc(OC)c1NC(=O)C(=O)Nn1c(NNC(=O)c2ccncc2)nc2ccccc2c1=O`, the TGI in [1], in experiment [2], in experiment [10], in experiment [5], in experiment [6] and in experiment [7] was above 100 µM throughout. Moreover, the TGI in experiment [8] and in experiment [9] was above 100 µM throughout.

Turning to `Cc1cc(C)n(-c2nc(C)c(CCO)c(=O)[nH]2)n1`, the TGI in [1], in [3], in experiment [4], in [10], in [5] and in [6] was above 100 µM in each case. The total growth inhibition concentration (TGI) in experiment [7], in [8] and in experiment [9] was above 100 µM in each case.

In the case of `CCCCCCCCCCCCOC1C(COCCN2CCCCC2)OC2OC(C)(C)OC21` (configuration not stated), the TGI in experiment [1] was determined as 5.8 µM; in [2], 3.28 µM; in experiment [3] it was 3.03 µM; in [4] it was 21.6 µM; in experiment [10], 3.01 µM; in experiment [5], 3.2 µM. Besides, the TGI came to 3.23 µM in experiment [6], 3.8 µM in [8] and 3.15 µM in [9].

As for `O=S(=O)(/N=C(\NO)Nc1ccc(Cl)cc1)c1cc2ccccc2s1`, the TGI in [1] stood at 31.6 µM; in experiment [2] it was 34.7 µM; in experiment [3], 29.6 µM; in experiment [4], 49.2 µM; in experiment [5], 36 µM; in [7], 37.9 µM. In addition, the TGI in [8] is 27.7 µM; in experiment [9], 41 µM.

Turning to `CSc1ncc2c(n1)-c1ccccc1OC2`, the TGI is above 100 µM in experiment [1]; 84.7 µM in experiment [2]; above 100 µM in [3]; above 100 µM in experiment [4]; above 100 µM in experiment [5]; above 100 µM in experiment [6]. Also, the TGI in experiment [7], in experiment [8] and in experiment [9] was above 100 µM in each case.

On to `CC1CN(CCO)CCN1c1ccccc1` (configuration not stated), for which the TGI in experiment [1], in experiment [2], in [3], in experiment [4], in [5] and in experiment [6] was above 100 µM each time. For the same compound, the TGI in experiment [7], in experiment [8] and in experiment [9] was above 100 µM throughout.

Regarding `CCOC(=O)c1cc(C)nc2c1c(=O)n(-c1ccccc1)c(=O)n2CCCCN1CCN(c2ncccn2)CC1`, the TGI in experiment [1] is above 100 µM; in [2], 83.8 µM; in [3] it was above 100 µM; in experiment [4], above 100 µM; in experiment [10], above 100 µM; in experiment [6], above 100 µM. For the same compound, the TGI in [8] and in [9] was above 100 µM each time.
